From ChEMBL document CHEMBL1201862, “PubChem BioAssay data set” (2004)
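Growth conditions: 96-well plates. Treatment: test compound, 48 hours, 5 concentrations. Analysis: linear interpolation between bracketing concentrations; unreached endpoints set to highest concentration. GI50 is the concentration that inhibits growth by half.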 Active and inactive are the calls of the source. Cut-off read from the data, not from the text of the source: active = GI50 up to about 1.1 µM and inactive = higher.

Legend:
Assay in all cases: growth of human tumour cells (NCI), 48 h
NCI-H522 = test system: NCI-H522
K562 = test system: K562
NCI-H460 = test system: NCI-H460
COLO 205 = test system: COLO 205
NCI/ADR-RES = test system: NCI/ADR-RES
SK-MEL-5 = test system: SK-MEL-5
TK-10 = test system: TK-10
UACC-62 = test system: UACC-62
PC-3 = test system: PC-3
LOX IMVI = test system: LOX IMVI
M14 = test system: M14
SR = test system: SR
UACC-257 = test system: UACC-257
SK-OV-3 = test system: SK-OV-3
SK-MEL-28 = test system: SK-MEL-28
HCC 2998 = test system: HCC 2998
RPMI-8226 = test system: RPMI-8226
OVCAR-3 = test system: OVCAR-3
786-0 = test system: 786-0
HCT-15 = test system: HCT-15

Row | SMILES | GI50 (NCI-H522) | GI50 (K562) | GI50 (NCI-H460) | GI50 (COLO 205) | GI50 (NCI/ADR-RES) | GI50 (SK-MEL-5) | GI50 (TK-10) | GI50 (UACC-62) | GI50 (PC-3) | GI50 (LOX IMVI) | GI50 (M14) | GI50 (SR) | GI50 (UACC-257) | GI50 (SK-OV-3) | GI50 (SK-MEL-28) | GI50 (HCC 2998) | GI50 (RPMI-8226) | GI50 (OVCAR-3) | GI50 (786-0) | GI50 (HCT-15)
1 | COC(=O)/C=C/COCC1C2CCC(=O)C21 (stereo not given) | > 100 µM (inactive) | > 100 µM (inactive) | > 100 µM (inactive) | > 100 µM (inactive) | > 100 µM (inactive) | > 100 µM (inactive) | > 100 µM (inactive) | > 100 µM (inactive) | > 100 µM (inactive) | > 100 µM (inactive) | > 100 µM (inactive) | > 100 µM (inactive) | > 100 µM (inactive) | > 100 µM (inactive) | > 100 µM (inactive) | > 100 µM (inactive) | > 100 µM (inactive) | > 100 µM (inactive) | > 100 µM (inactive) | > 100 µM
2 | Cc1cc(S(=O)(=O)Nc2nc(Nc3ccc(Cl)cc3)n[nH]2)c(S)cc1Cl | 70.5 µM (inactive) | > 100 µM (inactive) | 86.9 µM (inactive) | 79.3 µM (inactive) | > 100 µM (inactive) | > 100 µM (inactive) | > 100 µM (inactive) | 18.9 µM (inactive) | > 100 µM (inactive) | 75.7 µM (inactive) | 59.6 µM (inactive) | > 100 µM (inactive) | > 100 µM (inactive) | > 100 µM (inactive) | > 100 µM (inactive) | > 100 µM (inactive) | > 100 µM (inactive) | > 100 µM (inactive) | > 100 µM (inactive) | 4.53 µM
3 | CC(C)CC(NC(=O)C(Cc1ccccc1)NC(=O)[C@H]1CC[C@H](NC(=O)C(Cc2ccc(OC(C)(C)C)cc2)NC(=O)OC(C)(C)C)C1)C(N)=O (stereo not given in full) | 14.4 µM (inactive) | 17 µM (inactive) | 17.3 µM (inactive) | 18.8 µM (inactive) | > 100 µM (inactive) | 1.07 µM (active) | 29.3 µM (inactive) | 18.7 µM (inactive) | 18.1 µM (inactive) | 17.1 µM (inactive) | 16.6 µM (inactive) | 29.9 µM (inactive) | 19.7 µM (inactive) | 44.7 µM (inactive) | 20.2 µM (inactive) | 14.5 µM (inactive) | 17.7 µM (inactive) | 25.9 µM (inactive) | 46.7 µM (inactive) | 18 µM
4 | O=C1c2cc(CCl)sc2C(=O)c2ccsc21 | 0.422 µM (active) | 0.158 µM (active) | 1.31 µM (inactive) | 1.37 µM (inactive) | 0.2 µM (active) | 0.0416 µM (active) | 1.95 µM (inactive) | 0.178 µM (active) | 0.254 µM (active) | < 0.0248 µM (active) | < 0.0187 µM (active) | 0.142 µM (active) | 0.181 µM (active) | 1.85 µM (inactive) | 0.0634 µM (active) | 1.67 µM (inactive) | 0.184 µM (active) | 0.207 µM (active) | 1.53 µM (inactive) | 0.393 µM
5 | CC(=O)[C@@]1(O)CC[C@H]2[C@@H]3C[C@H](C)C4=CC(=O)CC[C@]4(C)[C@H]3[C@@H](O)C[C@@]21C | 73.6 µM (inactive) | > 100 µM (inactive) | > 100 µM (inactive) | > 100 µM (inactive) | > 100 µM (inactive) | > 100 µM (inactive) | > 100 µM (inactive) | > 100 µM (inactive) | > 100 µM (inactive) | > 100 µM (inactive) | > 100 µM (inactive) | > 100 µM (inactive) | > 100 µM (inactive) | > 100 µM (inactive) | > 100 µM (inactive) | > 100 µM (inactive) | < 0.01 µM (active) | > 100 µM (inactive) | > 100 µM (inactive) | > 100 µM
